# Where two headings read alike, the source gives them in different places.
# Columns and labels:
# [1] = biological target: T1, IRAP (Homo sapiens, UniProt Q9UIQ6); assay: Primary fluorescence IRAP assay (L-Leucine-7-amido-4-methylcoumarin cleavage); assay type: biochemical; conditions: for IC50 / Fluorescence pIC50: 37.5 µM L-Leucine-7-amido-4-methylcoumarin, 60 min RT, dose-response 20 µM-27.4 nM; for IC50: read-out: Fluorescence IC50; for LipE: calculated from (pIC50Fluorescence − LogD); for LogEC50 (best-fit): log of concentration in M; for EC50: read-out: EC50 (best-fit)
# T1 construct: The screen was performed with the soluble truncated IRAP enzyme; made in house
# T1 sequence (Q9UIQ6 155-1025 limits assumed): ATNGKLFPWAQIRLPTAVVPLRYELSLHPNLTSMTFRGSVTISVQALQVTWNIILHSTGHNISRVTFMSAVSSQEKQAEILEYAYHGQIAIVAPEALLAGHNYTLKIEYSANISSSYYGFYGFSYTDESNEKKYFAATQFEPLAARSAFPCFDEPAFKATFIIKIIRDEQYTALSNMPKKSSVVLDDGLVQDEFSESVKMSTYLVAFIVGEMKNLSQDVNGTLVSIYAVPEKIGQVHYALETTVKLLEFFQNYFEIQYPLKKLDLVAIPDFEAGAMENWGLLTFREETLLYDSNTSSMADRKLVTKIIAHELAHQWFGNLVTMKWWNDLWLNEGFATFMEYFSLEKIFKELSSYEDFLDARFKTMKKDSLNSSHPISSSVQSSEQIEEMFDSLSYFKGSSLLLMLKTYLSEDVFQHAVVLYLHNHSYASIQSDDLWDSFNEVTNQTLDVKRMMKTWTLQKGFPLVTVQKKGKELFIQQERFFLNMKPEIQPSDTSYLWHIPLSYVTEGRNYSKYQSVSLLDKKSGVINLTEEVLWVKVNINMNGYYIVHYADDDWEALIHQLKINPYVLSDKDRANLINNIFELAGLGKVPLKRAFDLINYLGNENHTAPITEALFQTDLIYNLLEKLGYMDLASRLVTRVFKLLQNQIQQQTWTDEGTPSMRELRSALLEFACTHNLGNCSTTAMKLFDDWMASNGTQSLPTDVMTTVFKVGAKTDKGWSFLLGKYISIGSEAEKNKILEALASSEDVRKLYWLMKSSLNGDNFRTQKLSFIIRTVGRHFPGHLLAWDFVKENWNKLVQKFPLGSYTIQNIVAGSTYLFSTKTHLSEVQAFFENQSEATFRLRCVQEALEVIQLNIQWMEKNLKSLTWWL
# Description: The primary biochemical assay was developed to measure the enzymatic activity of IRAP.
# To ensure biochemically sound, optimal, robust, and affordable assay conditions for large-scale screening, several factors need to be considered. […] For both primary fluorescence and orthogonal absorbance assays, non-binding 1536-well assay plates were used, and 0.05% BSA was included in the assay buffer to minimize the issues associated with protein sticking to plastics. The substrate Km values were determined in two separate experiments using two different batches of IRAP protein. For this, the IRAP progress curve was monitored every 5 min for 2 h using an Envision multimode plate reader (PerkinElmer, Waltham, MA, USA).
# First, 10 nL of test compounds (4 mM) or 100% DMSO was dispensed into the 1536-well assay plates using an Echo acoustic liquid handler (Beckman Coulter, Brea, CA, USA). Then, 2 μL of protein working solution (5 × 10^−4 mg/mL) was dispensed to the negative control (min effect) and compound wells (final well concentration 2.5 × 10^−4 mg/mL) using a Certus Flex liquid dispenser (Fritz Gyger AG, Thun, Switzerland) and 2 μL assay buffer to the positive control wells (max effect) using a FLEXdrop (PerkinElmer, Waltham, MA, USA).
# Figure S9. Reference compounds in Fluorescence IRAP assay with different end volumes in 1536-well format.
# mg/ml) and 2 or 4 µL L -Leucine-7-amido-4-methylcoumarin (f.a.c.
# Plates were measured on the Envision every 10 minutes for 140 minutes (data
# shown up to 2 hours). %Effect was calculated using no protein as MAX effect (assay buffer was added instead of IRAP).
# [2] = biological target: T1, IRAP; assay: Thermal shift (TSA) IRAP assay; assay type: binding; conditions: for ΔTm at 30 µM / TSA (∆°C), thermal shift of IRAP: screening hits at 30 µM, 1% DMSO
# Description: The Thermal shift assay (TSA) is a biophysical technique measuring protein thermal stability. The assay relies on a fluorescent dye that is quenched in an aqueous environment but fluoresces when de-solvated in non-polar environments, such as the hydrophobic pockets of proteins. The target protein is mixed with the dye and heated gradually until it becomes completely denatured; as it unfolds or melts, the dye binds to newly exposed hydrophobic regions of the protein, resulting in a significant increase in fluorescence emission detected by a PCR system. The melting temperature (Tm) is calculated from the protein melt curve, and changes in Tm (known as ΔTm) are correlated with changes in protein stability and ligand binding. […] For the TSA assay, vehicle (DMSO) or compound was dispensed into MicroAmp Endura optical qPCR plates at the desired volume using an Echo acoustic liquid handler. […] The plates were then centrifuged for 10 s at 1000 rpm and sealed with Clear PCR-compatible plate seals.
# [3] = design: method as in ELF screening history; conditions: ref ELF screening history, cited from earlier work; for Enzyme Active: number of ELF enzyme screens in which the compound was active; for Targets active: number of ELF screens in which the compound was active; for Enzyme Active %: share of ELF enzyme targets screened; for Targets Active %: share of all ELF targets screened
# [4] = biological target: T1, IRAP; assay: Orthogonal absorbance IRAP assay (L-Leucine para-nitroanilide cleavage); assay type: biochemical; conditions: for IC50 / Absorbance pIC50: 1 mM L-Leucine p-Nitroanilide, 120 min RT; for IC50: read-out: Absorbance pIC50 (converted)
# Description: The primary biochemical assay was developed to measure the enzymatic activity of IRAP. […] To establish an orthogonal assay, an alternative L-Leucine para-nitroanilide substrate was used, which IRAP turns over to L-Leucine and para-nitroaniline and is measurable by absorbance at 405 nm (Supplementary Figure S2B).
# To ensure biochemically sound, optimal, robust, and affordable assay conditions for large-scale screening, several factors need to be considered. These include the final concentration of substrates, based on the determined substrate Km value; the assay kinetics and reaction linearity; achieving a minimal, rate limiting protein concentration; identifying optimal buffer additives and concentrations; the choice of assay plate type; the final assay volume per well; the stability of reagents; the magnitude and variance of the signal; and the potency and rank order of reference compounds. For both primary fluorescence and orthogonal absorbance assays, non-binding 1536-well assay plates were used, and 0.05% BSA was included in the assay buffer to minimize the issues associated with protein sticking to plastics. The substrate Km values were determined in two separate experiments using two different batches of IRAP protein. For this, the IRAP progress curve was monitored every 5 min for 2 h using an Envision multimode plate reader (PerkinElmer, Waltham, MA, USA). […] To evaluate if using substrate concentrations close to the determined Km values results in sufficient dynamic range within the linear range of the enzymatic reaction, Z′ and S/B were calculated for multiple time points up to 2.5 h in the presence and absence of reference compounds in both assays. The primary fluorescence assay reached an optimal Z′-value after 1 h when using 37.5 μM substrate (Supplementary Figure S5). For the absorbance, 2 h was required for the enzyme reaction time; however, using ~0.4 mM substrate was associated with increased assay variation and a poor Z′ (Supplementary Figure S6).
# The orthogonal assay was performed in a black non-binding 1536-well plate (Corning 3728) and sealed with universal lids (Corning 3098). First, 20 nL of test compounds (4 mM) or 100% DMSO was dispensed into the 1536-well assay plates using an Echo acoustic liquid handler (Beckman Coulter). Then, 4 μL of protein working solution (5 × 10^−4 mg/mL) was dispensed to the negative control (min effect) and compound wells (final well concentration 2.5 × 10^−4 mg/mL) using the Certus Flex liquid dispenser (Fritz Gyger AG) and 4 μL assay buffer to the positive control wells (max effect) using the FLEXdrop (PerkinElmer). Next, 4 μL of 2 mM substrate working solution was dispensed into all wells using the FLEXdrop (final well concentration 1 mM). The assay plates were then centrifuged at 187.5× g for 30 s, incubated in the dark at RT for 120 min, and finally read on an Envision plate reader (PerkinElmer) (absorbance at 405 nm, 10 flashes per second). During the dose–response curve analysis in the orthogonal assay, 80 nL of compound (range 2.00 × 10^−3 M–2.74 × 10^−6 M) or 100% DMSO was dispensed into the assay plates using an Echo acoustic liquid handler (Beckman Coulter) with final well concentration range of 20 μM–27.4 nM compound and 1% DMSO.
# [5] = biological target: T1, IRAP; assay: Deselection fluorescence IRAP assay with 10 µM zinc; assay type: biochemical; conditions: 10 µM ZnSO4 in assay buffer; for IC50: read-out: Fluorescence + Zn pIC50 (converted)
# Procedure: To prepare the assay buffer (50 mM Tris-HCl pH 7.4, 150 mM NaCl, 0.1 mM PMSF, 0.05% BSA) of the primary and orthogonal assays, 1 M Tris-HCl was prepared by dissolving 60.57 g Trizma-base (Mw 121.14 g/mol) (Sigma 93362-250G) in 500 mL MQ water, and the pH was adjusted to 7.4 using 4 M HCl. The solution was filtered with a 0.45 μm filter and stored at room temperature (RT). Then, 2 M NaCl stock was prepared by dissolving 29.22 g NaCl (Mw 58.44 g/mol) (Sigma S7653-250G) in 250 mL MQ water. The solution was filtered with a 0.45 μm filter and stored at RT. Next, 100 mM Phenylmethanesulfonylfluoride (PMSF) stock was prepared by dissolving 1 g PMSF (Mw 174.19 g/mol) (Sigma 78830-1G) in 57.4 mL isopropanol (Sigma I9516-500ML) and stored at 4 °C. A 10% Bovine Serum Albumin (BSA) stock solution was prepared by dissolving 2 g BSA (Mw 66.5 kDa) (Sigma A7030-50G), which was dissolved in 20 mL MQ water. The solution was filtered with a 0.45 μm filter, aliquoted, and stored at −20 °C. For the deselection assay buffer (50 mM Tris-HCl pH 7.4, 150 mM NaCl, 0.1 mM PMSF, 0.05% BSA, 10 μM ZnSO4), 1 mM ZnSO4 solution was prepared by dissolving 28.8 mg ZnSO4 (Mw 287.56 g/mol) (Sigma Z0251-100G) in 100 mL MQ water. The solution was filtered with a 0.45 μm filter and stored at RT. For the TSA assay buffer (50 mM Tris HCL, 150 mM NaCl, pH 7.4), stocks of 1 M Tris HCL and 2 M NaCl were prepared as described above.
# [6] = 1536-well format, steady-state velocity, read-out: Km (substrate)
ΔTm at 30 µM [2] [°C],IC50 [1] [µM],LipE [1],IC50 [4] [µM],IC50 [5] [µM],"TSA (∆°C), thermal shift of IRAP [2] [°C]",Fluorescence pIC50 [1],Absorbance pIC50 [4],Fluorescence + Zn pIC50 [5],Compound,Enzyme Active [3],Targets active [3],Enzyme Active % [3] [%],Targets Active % [3] [%],also measured
1.48,3.24,2.14,10.7,5.13,–,–,–,–,O=C(C1CCCCC1)N1CCC[C@@H]1c1cc(-c2cccnc2)on1 [QHL27],4,5,5.0,3.4,–
–,6.46,1.50,–,–,0.44,5.19,< 4.70,5.18,c1scc2c(N3CCCCCC3)nc(N3CCC3)nc12 [QHL44],4,6,4.3,4.0,–
–,17.8,0.76,–,–,0.44,4.75,5.65,4.74,Cc1cc2nc(N)n(Cc3ccccc3)c2cc1C [QHL49],4,9,4.9,6.2,–
0.3,4.68,4.38,> 20,5.25,–,–,–,–,O=C1CN(c2cc(=O)n3ccn(Cc4ccc(F)cc4Cl)c3n2)CCN1 [QHL40],4,6,4.3,4.2,–
–,3.98,0.29,–,–,0.3,5.40,5.80,5.31,Cc1ccc(-c2nc(C3CCCN3C(=O)NCc3ccccc3)n3ccccc23)cc1 (racemic) [QHL36],4,6,7.1,5.8,–
0.15,3.47,3.10,> 20,6.17,–,–,–,–,CCCNc1nc(N(C)C)nc2cc(OC)c(OC)cc12 [QHL32],1,2,2.4,2.6,–
1.92,3.31,1.60,2.95,3.24,–,–,–,–,O=C(Cc1cc(N2CCCCCC2)nc(-c2ccc(Cl)cc2)n1)NO [QHL29],10,14,11.8,10.2,–

# Continued, compound first:
Compound,ΔTm at 30 µM [2] [°C],IC50 [1] [µM],LipE [1],IC50 [4] [µM],IC50 [5] [µM],"TSA (∆°C), thermal shift of IRAP [2] [°C]",Fluorescence pIC50 [1],Absorbance pIC50 [4],Fluorescence + Zn pIC50 [5],Enzyme Active [3],Targets active [3],Enzyme Active % [3] [%],Targets Active % [3] [%],also measured
"Cc1cc(=O)oc2cc(NC(=O)[C@@H](N)CC(C)C)ccc12 [L-Leucine-7-amido-4-methylcoumarin, reference compound]",–,–,–,–,–,–,–,–,–,–,–,–,–,"Km [1, 6]: 36.6 µM"
"O=S(=O)(Nc1cccc(-c2nnn[nH]2)c1)c1cc(Cl)c(Cl)cc1Cl [I, reference compound]",–,–,–,–,–,–,–,–,–,–,–,–,–,"stabilization of the thermal melting temperature of IRAP ([2]; 10-point half-log concentration series): dose-dependent and saturable; IRAP Tm ([2]; compound at 400 µM): 69.05 ± 0.17 °C; LogEC50 (best-fit) ([1]; 4 µl end volume, 30 min): -4.565; EC50 ([1]; 4 µl end volume, 30 min): 27.2 µM; LogEC50 (best-fit) ([1]; 4 µl end volume, 60 min): -4.541; EC50 ([1]; 4 µl end volume, 60 min): 28.8 µM; LogEC50 (best-fit) ([1]; 4 µl end volume, 90 min): -4.517; EC50 ([1]; 4 µl end volume, 90 min): 30.4 µM; LogEC50 (best-fit) ([1]; 4 µl end volume, 120 min): -4.5; EC50 ([1]; 4 µl end volume, 120 min): 31.6 µM; LogEC50 (best-fit) ([1]; 8 µl end volume, 30 min): -4.385; EC50 ([1]; 8 µl end volume, 30 min): 41.2 µM; LogEC50 (best-fit) ([1]; 8 µl end volume, 60 min): -4.449; EC50 ([1]; 8 µl end volume, 60 min): 35.6 µM; LogEC50 (best-fit) ([1]; 8 µl end volume, 90 min): -4.469; EC50 ([1]; 8 µl end volume, 90 min): 34 µM; LogEC50 (best-fit) ([1]; 8 µl end volume, 120 min): -4.427; EC50 ([1]; 8 µl end volume, 120 min): 37.4 µM"
"CC(C)C[C@H](N)C(=O)Nc1ccc([N+](=O)[O-])cc1 [L-Leucine p-Nitroanilide, reference compound]",–,–,–,–,–,–,–,–,–,–,–,–,–,"Km [4, 6]: 380 µM"

# Reference: paper PMC11012289, “The Discovery of New Inhibitors of Insulin-Regulated Aminopeptidase by a High-Throughput Screening of 400,000 Drug-like Compounds” (International Journal of Molecular Sciences, 2024)
